Experiments:
[1] = Absorption characteristic of NIR dye in dichloromethane; assay type: physicochemical
Description: The obtained NIR dyes were each dissolved in dichloromethane, and an ultraviolet-visible spectrophotometer (manufactured by Hitachi High Technologies Co., Ltd., U-4100 type) was used to measure each spectral transmittance curve, from which a maximum absorption wavelength λmax, a wavelength λ80 at which the transmittance becomes 80% on a shorter wavelength side than the maximum absorption wavelength with the transmittance at the maximum absorption wavelength set to 10%, a difference between the maximum absorption wavelength λmax and the wavelength λ80 (λmax−λ80), a maximum absorption constant εA in light of a wavelength range of 430 to 550 nm, a maximum absorption constant εB in light of a wavelength range of 670 to 730 nm, and a ratio of these (εB/εA) were calculated. Note that the U-4100 type was used for the measurement of spectral transmittance curves in each of the following examples.

[2] = Solubility of NIR dye to resin solution; assay type: physicochemical; details: stirred two hours; for Solubility evaluation, Polyimide resin: 12.5 mass % C3450 in cyclohexanone:NMP=1:1, 50° C.; for Solubility evaluation, Polyester resin: 12.5 mass % OKP850 in cyclohexanone:NMP=1:1, 50° C.; for Solubility evaluation, Polyethersulfone resin: 12.5 mass % PES4800 in cyclohexanone:NMP=1:1, 50° C.
Method: Results are illustrated in Table 8 together with the kinds of the used dyes. Note that the temperature of the resin solution in the solubility test was set to 50° C., the NIR dye was put into the resin solution, the resultant resin solution was stirred for two hours, and the presence/absence of occurrence of the dissolution was observed visually. Evaluation criteria of the solubility are as follows.
A: Solubility of 9 mass % or more
B: Solubility of 7 mass % or more and less than 9 mass %
C: Solubility of 5 mass % or more and less than 7 mass %
D: Solubility of 3 mass % or more and less than 5 mass %
E: Solubility of 1 mass % or more and less than 3 mass %
F: Solubility of less than 1 mass %

Row | εA (maximum absorption constant, 430 to 550 nm) [1] | εB (maximum absorption constant, 670 to 730 nm) [1] | εB/εA [1] | λ80 (wavelength of 80% transmittance, shorter side of λmax, transmittance at λmax set to 10%) [1] | λmax (maximum absorption wavelength) [1] | λmax-λ80 [1] | Solubility evaluation, Polyimide resin [2] | Solubility evaluation, Polyester resin [2] | Solubility evaluation, Polyethersulfone resin [2] | SMILES
1 | 0.016 | 1 | 61.3 | 658 nm | 705 nm | 47 nm | A (9 mass % or more) | A (9 mass % or more) | A (9 mass % or more) | CCCCCOC(=O)Nc1cc2c(cc1C1=C([O-])C(=c3cc4c(cc3NC(=O)OCCCCC)=[N+](C(C)(C)CC)C(C)C4(C)C)C1=O)C(C)(C)C(C)N2C(C)(C)CC (stereo not drawn) [A1-11]
2 | 0.017 | 1 | 59.7 | 656 nm | 707 nm | 51 nm | A (9 mass % or more) | A (9 mass % or more) | A (9 mass % or more) | CCCOC(=O)Nc1cc2c(cc1C1=C([O-])C(=c3cc4c(cc3NC(=O)OCCC)=[N+](C(C)(CC)CC)C(C)C4(C)C)C1=O)C(C)(C)C(C)N2C(C)(CC)CC (stereo not drawn) [A1-12]
3 | 0.020 | 1 | 49.1 | 656 nm | 706 nm | 50 nm | – | – | – | CCCCC(CC)C(=O)Nc1cc2c(cc1C1=C([O-])C(=c3cc4c(cc3NC(=O)C(CC)CCCC)=[N+](C(C)C)C(C)C4(C)C)C1=O)C(C)(C)C(C)N2C(C)C (stereo not drawn) [A3, reference compound]
4 | 0.029 | 1 | 34.7 | 659 nm | 710 nm | 51 nm | – | – | – | CCCCCCCOc1ccc(C(=O)Nc2cc3c(cc2C2=C([O-])C(=c4cc5c(cc4NC(=O)c4ccc(OCCCCCCC)cc4)=[N+](C(C)C)C(C)C5(C)C)C2=O)C(C)(C)C(C)N3C(C)C)cc1 (stereo not drawn) [A4, reference compound]
5 | 0.019 | 1 | 51.8 | 659 nm | 707 nm | 48 nm | A (9 mass % or more) | A (9 mass % or more) | A (9 mass % or more) | CCCCCOC(=O)Nc1cc2c(cc1C1=C([O-])C(=c3cc4c(cc3NC(=O)OCCCCC)=[N+](C(C)(CC)CC)C(C)C4(C)C)C1=O)C(C)(C)C(C)N2C(C)(CC)CC (stereo not drawn) [A1-13]

The remaining lines, values behind:

Row | SMILES | εA (maximum absorption constant, 430 to 550 nm) [1] | εB (maximum absorption constant, 670 to 730 nm) [1] | εB/εA [1] | λ80 (wavelength of 80% transmittance, shorter side of λmax, transmittance at λmax set to 10%) [1] | λmax (maximum absorption wavelength) [1] | λmax-λ80 [1] | Solubility evaluation, Polyimide resin [2] | Solubility evaluation, Polyester resin [2] | Solubility evaluation, Polyethersulfone resin [2]
6 | CCCOC(=O)Nc1cc2c(cc1C1=C([O-])C(=c3cc4c(cc3NC(=O)OCCC)=[N+](C(C)C)C(C)C4(C)C)C1=O)C(C)(C)C(C)N2C(C)C (stereo not drawn) [A1-6] | 0.016 | 1 | 63.9 | 647 nm | 697 nm | 50 nm | A (9 mass % or more) | A (9 mass % or more) | A (9 mass % or more)
7 | CCCOC(=O)Nc1cc2c(cc1C1=C([O-])C(=c3cc4c(cc3NC(=O)OCCC)=[N+](C(C)(C)CC)C(C)C4(C)C)C1=O)C(C)(C)C(C)N2C(C)(C)CC (stereo not drawn) [A1-10] | 0.018 | 1 | 55.5 | 658 nm | 705 nm | 47 nm | A (9 mass % or more) | A (9 mass % or more) | A (9 mass % or more)
8 | CCCc1ccc(OC(=O)Nc2cc3c(cc2C2=C([O-])C(=c4cc5c(cc4NC(=O)Oc4ccc(CCC)cc4)=[N+](C(C)C)C(C)C5(C)C)C2=O)C(C)(C)C(C)N3C(C)C)cc1 (stereo not drawn) [A1-9] | 0.013 | 1 | 75.7 | 651 nm | 700 nm | 49 nm | E (1 mass % or more and less than 3 mass %) | E (1 mass % or more and less than 3 mass %) | E (1 mass % or more and less than 3 mass %)
9 | CC(C)OC(=O)Nc1cc2c(cc1C1=C([O-])C(=c3cc4c(cc3NC(=O)OC(C)C)=[N+](C(C)C)C(C)C4(C)C)C1=O)C(C)(C)C(C)N2C(C)C (stereo not drawn) [A1-8] | 0.017 | 1 | 60.2 | 647 nm | 697 nm | 50 nm | A (9 mass % or more) | A (9 mass % or more) | A (9 mass % or more)
10 | CCCOC(=O)Nc1cc2c(cc1C1=C([O-])C(=c3cc4c(cc3NC(=O)OCCC)=[N+](C)C(C)C4(C)C)C1=O)C(C)(C)C(C)N2C (stereo not drawn) [A1-2] | 0.017 | 1 | 59.0 | 633 nm | 691 nm | 58 nm | A (9 mass % or more) | A (9 mass % or more) | A (9 mass % or more)
11 | COC(=O)Nc1cc2c(cc1C1=C([O-])C(=c3cc4c(cc3NC(=O)OC)=[N+](C)C(C)C4(C)C)C1=O)C(C)(C)C(C)N2C (stereo not drawn) [A1-1] | 0.014 | 1 | 71.1 | 632 nm | 691 nm | 59 nm | E (1 mass % or more and less than 3 mass %) | D (3 mass % or more and less than 5 mass %) | E (1 mass % or more and less than 3 mass %)
12 | CCCCC(CC)COC(=O)Nc1cc2c(cc1C1=C([O-])C(=c3cc4c(cc3NC(=O)OCC(CC)CCCC)=[N+](C)C(C)C4(C)C)C1=O)C(C)(C)C(C)N2C (stereo not drawn) [A1-4] | 0.019 | 1 | 53.5 | 632 nm | 690 nm | 58 nm | A (9 mass % or more) | A (9 mass % or more) | A (9 mass % or more)
13 | CCCCCOC(=O)Nc1cc2c(cc1C1=C([O-])C(=c3cc4c(cc3NC(=O)OCCCCC)=[N+](C(C)C)C(C)C4(C)C)C1=O)C(C)(C)C(C)N2C(C)C (stereo not drawn) [A1-7] | 0.016 | 1 | 61.8 | 647 nm | 697 nm | 50 nm | A (9 mass % or more) | A (9 mass % or more) | A (9 mass % or more)
14 | CCCc1ccc(OC(=O)Nc2cc3c(cc2C2=C([O-])C(=c4cc5c(cc4NC(=O)Oc4ccc(CCC)cc4)=[N+](C)C(C)C5(C)C)C2=O)C(C)(C)C(C)N3C)cc1 (stereo not drawn) [A1-5] | 0.016 | 1 | 63.9 | 636 nm | 693 nm | 57 nm | F (Less than 1 mass %) | F (Less than 1 mass %) | F (Less than 1 mass %)
15 | CCCCCOC(=O)Nc1cc2c(cc1C1=C([O-])C(=c3cc4c(cc3NC(=O)OCCCCC)=[N+](C)C(C)C4(C)C)C1=O)C(C)(C)C(C)N2C (stereo not drawn) [A1-3] | 0.013 | 1 | 77.5 | 633 nm | 691 nm | 58 nm | A (9 mass % or more) | A (9 mass % or more) | A (9 mass % or more)

Reference: patent US11693163B2, “Optical filter and imaging device” (AGC Inc., priority 2015, dated 2023)
